Measurements: patent US7087641B2, “4β-1″-[(2″-substituted benzoyl) anilino]podophyllotoxin analogues useful as anticancer agents” (Council of Scientific & Industrial Research, priority 2002, dated 2006)

test system: tumor cell lines; test: Cytotoxicity (in vitro); type: cell-based; settings: range of GI50 values, cell lines not named
Description: A program was initiated in the laboratory for the design and synthesis of new 4β-aryl amino substituted podophyllotoxin congeners with enhanced antitumour activity and/or activity against etoposide resistant tumor cell lines. In these efforts new 4β-1″-[{2″-benzoyl substituted}anilino] podophyllotoxin derivatives have been synthesized and evaluated for their cytotoxicity and anticancer potency. […] The synthesis of these compounds has been carried out as described in the scheme using podophyllotoxin obtained from the resin. The cytotoxicity of 4a–4p values have been illustrated in the Table 1.

Compound	GI50
COc1cc([C@@H]2c3cc4c(cc3[C@@H](Nc3ccccc3C(=O)c3ccccc3)[C@@H]3COC(=O)[C@H]23)OCO4)cc(OC)c1OC [4a, 4β-1″-[2″-(Benzoyl)anilino]-4-desoxypodophyllotoxin]	0.04 to 0.5 µM
COc1cc([C@@H]2c3cc4c(cc3[C@@H](Nc3ccccc3C(=O)c3ccccc3)[C@@H]3COC(=O)[C@H]23)OCO4)cc(OC)c1O [4b, 4′-O-Demethyl-4β-1″-[2″-(benzoyl)anilino]-4-desoxypodophyllotoxin]	15 to 382 µM
COc1cc([C@@H]2c3cc4c(cc3[C@@H](Nc3ccc(Cl)cc3C(=O)c3ccccc3Cl)[C@@H]3COC(=O)[C@H]23)OCO4)cc(OC)c1OC [4c, 4β-1″-[2″-(2-Chlorobenzoyl)-4″-chloroanilino]-4-desoxypodophyllotoxin]	0.059 to 0.876 µM
COc1cc(C2c3cc4c(cc3C(Nc3ccc(Cl)cc3C(=O)c3ccccc3Cl)C3COC(=O)C23)OCO4)cc(OC)c1O (stereo not drawn) [4d, 4′-O-Demethyl-4β-1″-[2″-(2-Chlorobenzoyl)-4″-chloroanilino]-4-desoxypodo-phyllotoxin]	0.1 to 0.24 µM
COc1cc([C@@H]2c3cc4c(cc3[C@@H](Nc3ccc([N+](=O)[O-])cc3C(=O)c3ccccc3)[C@@H]3COC(=O)[C@H]23)OCO4)cc(OC)c1O [4f]	0.01 to 0.24 µM
COc1cc(C2c3cc4c(cc3C(Nc3ccc(Cl)cc3C(=O)c3ccccc3)C3COC(=O)C23)OCO4)cc(OC)c1OC (stereo not drawn) [4g, 4β-1″-[2″-(Benzoyl)-4″-chloroanilino]-4-desoxypodophyllotoxin]	0.07 to 1.1 µM
COc1cc(C2c3cc4c(cc3C(Nc3ccc(Cl)cc3C(=O)c3ccccc3)C3COC(=O)C23)OCO4)cc(OC)c1O (stereo not drawn) [4h]	14 to 270 µM
COc1cc([C@@H]2c3cc4c(cc3[C@@H](Nc3ccc(Cl)cc3C(=O)c3ccccc3F)[C@@H]3COC(=O)[C@H]23)OCO4)cc(OC)c1OC [4i, 4β-1″-[2″-(2-Fluorobenzoyl)-4″-chloroanilino]-4-desoxypodophyllotoxin]	0.14 to 0.3 µM
COc1cc(C2c3cc4c(cc3C(Nc3ccc(Cl)cc3C(=O)c3ccccc3F)C3COC(=O)C23)OCO4)cc(OC)c1O (stereo not drawn) [4j, 4′-O-Demethyl-4β-1″-[2″-(2-Fluorobenzoyl)-4″-chloroanilino]-4-desoxypodo-phyllotoxin]	0.004 to 0.1 µM
COc1cc([C@@H]2c3cc4c(cc3[C@@H](Nc3cccc(C(=O)c5ccccc5)c3)[C@@H]3COC(=O)[C@H]23)OCO4)cc(OC)c1OC [4k, 4β-1″-[3″-(Benzoyl)anilino]-4-desoxypodophyllotoxin]	0.1 to 1 µM
COc1cc([C@@H]2c3cc4c(cc3[C@@H](Nc3cccc(C(=O)c5ccccc5)c3)[C@@H]3COC(=O)[C@H]23)OCO4)cc(OC)c1O [4l, 4′-O-Demethyl-4β-1″-[3″-(benzoyl)anilino]-4-desoxypodophyllotoxin]	2 to 16 µM
COc1cc(C2c3cc4c(cc3C(Nc3ccc(C(=O)c5ccccc5)cc3[N+](=O)[O-])C3COC(=O)C23)OCO4)cc(OC)c1O (stereo not drawn) [4n]	0.01 to 0.24 µM
